Measured values taken from patent US20050032866A1, “The use of 5ht4 receptor antagonists in the prophylaxis or treatment of certain cardiovascular conditions” (priority 2000, published 2005).

Assays:
Opiate mu = Opiate mu (Homo sapiens, UniProt P35372); assay: receptor binding studies, Opiate mu; conditions: read-out: pKi Opiate mu (converted)
5-HT2C = 5-HT2C (Homo sapiens, UniProt P28335); assay: receptor binding studies, 5-HT2C; conditions: read-out: pKd 5-HT2C (converted)
5-HT3 = 5-HT3 (Homo sapiens, UniProt P46098); assay: receptor binding studies, 5-HT3; conditions: read-out: pKd 5-HT3 (converted)
5-HT2B receptor = molecular target: T1, 5-HT2B receptor (Rattus norvegicus, UniProt P30994); assay: functional studies on the rat stomach fundus; type: cell-based
T1 construct: from tissue; host or cells: rat stomach fundus

5-HT4 receptor [1] = assay: 5-HT-induced motility in dog Heidenhain gastric pouch; type: in vivo
Description: Compounds are tested for inhibition in the in vivo method described in “Stimulation of canine motility by BRL 24924, a new gastric prokinetic agent”, Bermudez et al, J. Gastrointestinal Motility, 1990, 2(4), 281-286.
Dogs with previously prepared Heidenhain gastric pouches are fasted overnight.

5-HT1E = 5-HT1E (Homo sapiens, UniProt P28566); assay: receptor binding studies, 5-HT1E; conditions: read-out: pKd 5-HT1E (converted)
H1 = H1 (Homo sapiens, UniProt P35367); assay: receptor binding studies, H1; conditions: read-out: pKd H1 (converted)
Alpha1 = assay: receptor binding studies, Alpha1
5-HT4 receptor [2] = molecular target: T2, 5-HT4 receptor (Rattus norvegicus, UniProt Q62758); assay: rat oesophageal tunica muscularis mucosae, relaxation to 5-HT; type: cell-based
T2 construct: The inner smooth muscle tube of the muscularis mucosae is isolated and mounted for isometric tension recording; from tissue; host or cells: rat oesophageal tunica muscularis mucosae
Source text: Rat oesophageal tunica muscularis mucosae is set up according to Baxter et. al. Naunyn-Schmiedeberg's Arch.

GABA = assay: receptor binding studies, GABA
D2 = D2 (Homo sapiens, UniProt P14416); assay: receptor binding studies, D2; conditions: read-out: pKd D2 (converted)
5-HT2A = 5-HT2A (Homo sapiens, UniProt P28223); assay: receptor binding studies, 5-HT2A; conditions: read-out: pKd 5-HT2A (converted)
D3 = D3 (Homo sapiens, UniProt P35462); assay: receptor binding studies, D3; conditions: read-out: pKd D3 (converted)
5-HT1A = 5-HT1A (Homo sapiens, UniProt P08908); assay: receptor binding studies, 5-HT1A; conditions: read-out: pKd 5-HT1A (converted)
5-HT1D = 5-HT1D (Homo sapiens, UniProt P28221); assay: receptor binding studies, 5-HT1D; conditions: read-out: pKd 5-HT1D (converted)
Opiate delta = Opiate delta (Homo sapiens, UniProt P41143); assay: receptor binding studies, Opiate delta; conditions: read-out: pKi Opiate delta (converted)
Opiate kappa = Opiate kappa (Homo sapiens, UniProt P41145); assay: receptor binding studies, Opiate kappa; conditions: read-out: pKi Opiate kappa (converted)
5-HT4 receptor [3] = molecular target: T3, 5-HT4 receptor (Cavia porcellus, UniProt O70528); assay: guinea pig distal colon longitudinal muscle-myenteric plexus, 5-HT-evoked contraction; type: cell-based
T3 construct: Longitudinal muscle-myenteric plexus preparations, approximately 3 cm long, are obtained from the distal colon region; from tissue; host or cells: guinea-pig distal colon longitudinal muscle-myenteric plexus
Description: Male guinea-pigs, weighing 250-400 g are used.
(§1) In some experiments, this tissue was dosed alternately with an approximately equi-effective concentration of the nicotine receptor stimulant, dimethylphenylpiperazinium (DMPP).

[4] = tested on: social interaction in rats; assay: social interaction test in rats (anxiolytic activity); type: in vivo, rat
Description: Rats (male, Sprague Dawleys, Charles River, 250-300 g) are housed in groups of eight in a holding room for 5 days. They are then housed singly in a room adjacent to the experimental room for 4 days prior to the experimental day. On the experimental day rats are administered vehicle, test compound or a benzodiazepine anxiolytic, chlordiazepoxide, p.o. in pairs (n=8-16), at 15 minute intervals beginning at 10.00 a.m. […] The box is made of white perspex 54 cm×37 cm×26 cm with a transparent perspex front side and no lid. The floor is divided up into 24 squares and the box is brightly lit (115 lux). Active social interactive behaviours (grooming, sniffing, climbing over or under, following, biting, mounting and boxing) are scored blind for the next 15 min by remote video monitoring to give total interaction scores. The number of squares crossed by each rat is also scored and summed. After the end of each test the box is carefully wiped.

[5] = tested on: DMPP-evoked contractions (nicotinic receptor agonist); assay: guinea pig colon, DMPP-evoked contractions; type: cell-based; conditions: 10^−5M
Description: as §1

5-HT4 receptors = assay: antagonism of 5-HT-evoked tachycardia in anaesthetised piglets; type: in vivo, piglet
Source text: All experiments were in 2-5 day old piglets in which the vagi were sectioned.

BDZ = assay: receptor binding studies, BDZ

T3 sequence (O70528 whole entry): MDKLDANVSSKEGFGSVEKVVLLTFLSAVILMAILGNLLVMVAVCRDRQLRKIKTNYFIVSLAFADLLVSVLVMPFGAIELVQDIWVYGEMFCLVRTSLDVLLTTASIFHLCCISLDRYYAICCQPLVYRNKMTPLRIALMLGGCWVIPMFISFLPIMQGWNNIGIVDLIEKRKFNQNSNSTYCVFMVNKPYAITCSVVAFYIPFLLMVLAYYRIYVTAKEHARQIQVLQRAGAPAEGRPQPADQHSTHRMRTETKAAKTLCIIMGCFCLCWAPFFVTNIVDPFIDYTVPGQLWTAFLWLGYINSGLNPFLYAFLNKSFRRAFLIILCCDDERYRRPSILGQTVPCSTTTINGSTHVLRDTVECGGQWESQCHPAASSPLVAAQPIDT
T2 sequence (Q62758 whole entry): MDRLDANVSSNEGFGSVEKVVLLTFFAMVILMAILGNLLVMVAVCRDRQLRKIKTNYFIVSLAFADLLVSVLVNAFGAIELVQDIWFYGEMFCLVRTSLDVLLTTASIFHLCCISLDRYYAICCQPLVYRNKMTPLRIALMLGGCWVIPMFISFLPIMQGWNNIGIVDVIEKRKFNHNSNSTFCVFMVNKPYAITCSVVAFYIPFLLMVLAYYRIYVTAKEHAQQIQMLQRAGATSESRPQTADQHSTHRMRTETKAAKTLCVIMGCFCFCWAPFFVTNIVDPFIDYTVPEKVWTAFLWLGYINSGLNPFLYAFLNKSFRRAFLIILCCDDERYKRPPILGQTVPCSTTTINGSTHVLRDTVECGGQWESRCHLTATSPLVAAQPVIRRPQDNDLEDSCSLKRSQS
H1, sequence (P35367 whole entry): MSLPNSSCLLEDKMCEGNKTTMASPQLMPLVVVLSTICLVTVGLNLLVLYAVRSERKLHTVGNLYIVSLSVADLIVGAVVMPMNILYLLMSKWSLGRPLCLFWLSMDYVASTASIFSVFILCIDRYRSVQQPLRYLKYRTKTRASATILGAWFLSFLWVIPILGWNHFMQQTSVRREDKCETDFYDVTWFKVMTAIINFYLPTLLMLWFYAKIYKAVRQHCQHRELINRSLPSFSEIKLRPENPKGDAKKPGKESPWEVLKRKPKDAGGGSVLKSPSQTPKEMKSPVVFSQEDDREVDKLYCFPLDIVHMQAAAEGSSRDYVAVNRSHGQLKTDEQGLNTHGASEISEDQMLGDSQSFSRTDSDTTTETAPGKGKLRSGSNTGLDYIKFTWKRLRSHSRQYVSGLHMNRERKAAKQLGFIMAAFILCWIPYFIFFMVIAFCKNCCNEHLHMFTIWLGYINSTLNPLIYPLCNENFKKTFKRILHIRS
D2, sequence (P14416 whole entry): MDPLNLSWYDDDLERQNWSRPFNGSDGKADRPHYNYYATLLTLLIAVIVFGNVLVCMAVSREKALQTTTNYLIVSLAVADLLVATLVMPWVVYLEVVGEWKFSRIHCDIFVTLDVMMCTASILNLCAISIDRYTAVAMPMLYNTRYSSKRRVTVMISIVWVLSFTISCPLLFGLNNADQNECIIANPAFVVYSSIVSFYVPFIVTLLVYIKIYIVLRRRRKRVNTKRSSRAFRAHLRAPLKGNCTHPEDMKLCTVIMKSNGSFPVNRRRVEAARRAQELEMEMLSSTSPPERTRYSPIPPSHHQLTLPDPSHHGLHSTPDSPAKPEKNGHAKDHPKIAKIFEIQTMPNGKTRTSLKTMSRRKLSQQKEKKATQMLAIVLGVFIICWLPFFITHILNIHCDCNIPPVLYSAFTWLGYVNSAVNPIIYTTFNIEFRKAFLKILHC
Opiate delta, sequence (P41143 whole entry): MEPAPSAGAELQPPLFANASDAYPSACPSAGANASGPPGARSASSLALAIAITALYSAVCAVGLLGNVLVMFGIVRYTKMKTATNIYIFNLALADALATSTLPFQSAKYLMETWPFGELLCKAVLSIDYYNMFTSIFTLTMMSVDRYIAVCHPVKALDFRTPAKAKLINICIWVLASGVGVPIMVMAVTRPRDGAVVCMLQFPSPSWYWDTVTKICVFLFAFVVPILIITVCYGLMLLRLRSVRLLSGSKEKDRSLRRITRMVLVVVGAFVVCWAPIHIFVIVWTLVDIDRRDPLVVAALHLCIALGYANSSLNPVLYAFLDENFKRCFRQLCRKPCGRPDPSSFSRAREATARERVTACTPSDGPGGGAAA
5-HT2A, sequence (P28223 whole entry, species assumed): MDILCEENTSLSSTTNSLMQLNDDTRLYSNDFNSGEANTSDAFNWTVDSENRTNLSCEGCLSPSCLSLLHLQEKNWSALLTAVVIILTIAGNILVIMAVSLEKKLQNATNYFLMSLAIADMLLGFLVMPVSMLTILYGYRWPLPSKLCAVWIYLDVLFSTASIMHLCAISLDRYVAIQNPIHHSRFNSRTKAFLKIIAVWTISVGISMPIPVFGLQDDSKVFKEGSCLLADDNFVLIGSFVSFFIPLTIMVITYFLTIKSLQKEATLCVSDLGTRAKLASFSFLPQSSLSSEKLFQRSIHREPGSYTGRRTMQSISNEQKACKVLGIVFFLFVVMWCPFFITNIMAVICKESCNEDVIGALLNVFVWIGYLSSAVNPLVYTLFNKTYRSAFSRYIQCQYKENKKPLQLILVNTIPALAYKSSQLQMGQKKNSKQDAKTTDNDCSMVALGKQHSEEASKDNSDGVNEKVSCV
D3, sequence (P35462 whole entry): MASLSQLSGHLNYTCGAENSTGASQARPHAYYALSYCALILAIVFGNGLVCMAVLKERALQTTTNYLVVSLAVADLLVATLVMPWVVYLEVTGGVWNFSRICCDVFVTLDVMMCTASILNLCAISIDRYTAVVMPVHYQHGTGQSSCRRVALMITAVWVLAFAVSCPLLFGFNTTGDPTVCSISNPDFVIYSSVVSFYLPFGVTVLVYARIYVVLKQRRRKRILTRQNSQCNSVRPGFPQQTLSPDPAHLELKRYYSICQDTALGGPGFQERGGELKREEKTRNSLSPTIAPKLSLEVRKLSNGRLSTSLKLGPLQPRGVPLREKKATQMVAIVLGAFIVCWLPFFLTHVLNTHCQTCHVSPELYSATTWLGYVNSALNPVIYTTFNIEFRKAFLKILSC
5-HT1D, sequence (P28221 whole entry, species assumed): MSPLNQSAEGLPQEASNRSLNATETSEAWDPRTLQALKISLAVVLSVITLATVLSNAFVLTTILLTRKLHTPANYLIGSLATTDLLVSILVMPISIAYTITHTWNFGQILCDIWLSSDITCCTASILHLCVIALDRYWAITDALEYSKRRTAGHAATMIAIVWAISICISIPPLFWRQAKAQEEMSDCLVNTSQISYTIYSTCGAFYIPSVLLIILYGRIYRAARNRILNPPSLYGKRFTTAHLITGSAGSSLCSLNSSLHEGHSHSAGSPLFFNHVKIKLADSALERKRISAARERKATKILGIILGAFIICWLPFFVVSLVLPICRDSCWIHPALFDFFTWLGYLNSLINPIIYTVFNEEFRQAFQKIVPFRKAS
5-HT1E, sequence (P28566 whole entry, species assumed): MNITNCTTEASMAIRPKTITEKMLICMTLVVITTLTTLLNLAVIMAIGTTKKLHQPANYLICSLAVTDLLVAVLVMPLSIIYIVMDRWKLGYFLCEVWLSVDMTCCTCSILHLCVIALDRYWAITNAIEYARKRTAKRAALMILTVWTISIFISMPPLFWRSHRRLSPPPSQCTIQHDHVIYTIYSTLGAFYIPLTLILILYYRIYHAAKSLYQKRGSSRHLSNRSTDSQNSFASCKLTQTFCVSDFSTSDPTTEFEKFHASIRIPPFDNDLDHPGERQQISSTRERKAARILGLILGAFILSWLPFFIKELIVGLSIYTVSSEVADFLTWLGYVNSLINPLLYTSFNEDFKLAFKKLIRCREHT
Opiate kappa, sequence (P41145 whole entry): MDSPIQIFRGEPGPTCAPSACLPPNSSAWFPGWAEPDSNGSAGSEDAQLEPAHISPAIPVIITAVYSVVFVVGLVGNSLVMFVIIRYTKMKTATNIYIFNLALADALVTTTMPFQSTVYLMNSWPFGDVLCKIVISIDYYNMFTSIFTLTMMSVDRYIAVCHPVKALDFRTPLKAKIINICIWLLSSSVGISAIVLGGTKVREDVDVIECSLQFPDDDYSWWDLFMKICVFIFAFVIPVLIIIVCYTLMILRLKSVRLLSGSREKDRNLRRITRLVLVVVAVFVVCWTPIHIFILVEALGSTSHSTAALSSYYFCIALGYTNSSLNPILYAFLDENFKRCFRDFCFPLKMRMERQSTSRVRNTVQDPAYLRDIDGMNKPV
5-HT2C, sequence (P28335 33-458, species assumed): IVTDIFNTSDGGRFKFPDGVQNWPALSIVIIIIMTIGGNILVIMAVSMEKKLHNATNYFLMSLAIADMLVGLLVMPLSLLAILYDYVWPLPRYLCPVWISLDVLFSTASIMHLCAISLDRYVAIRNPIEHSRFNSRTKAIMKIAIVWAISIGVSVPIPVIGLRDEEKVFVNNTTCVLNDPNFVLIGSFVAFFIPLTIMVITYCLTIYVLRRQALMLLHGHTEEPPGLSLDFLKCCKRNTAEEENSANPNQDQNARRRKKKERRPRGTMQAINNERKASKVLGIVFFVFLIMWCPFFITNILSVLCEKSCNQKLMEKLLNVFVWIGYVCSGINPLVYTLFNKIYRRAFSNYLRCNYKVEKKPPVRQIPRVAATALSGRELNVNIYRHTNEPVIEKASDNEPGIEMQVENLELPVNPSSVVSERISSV
5-HT1A, sequence (P08908 whole entry, species assumed): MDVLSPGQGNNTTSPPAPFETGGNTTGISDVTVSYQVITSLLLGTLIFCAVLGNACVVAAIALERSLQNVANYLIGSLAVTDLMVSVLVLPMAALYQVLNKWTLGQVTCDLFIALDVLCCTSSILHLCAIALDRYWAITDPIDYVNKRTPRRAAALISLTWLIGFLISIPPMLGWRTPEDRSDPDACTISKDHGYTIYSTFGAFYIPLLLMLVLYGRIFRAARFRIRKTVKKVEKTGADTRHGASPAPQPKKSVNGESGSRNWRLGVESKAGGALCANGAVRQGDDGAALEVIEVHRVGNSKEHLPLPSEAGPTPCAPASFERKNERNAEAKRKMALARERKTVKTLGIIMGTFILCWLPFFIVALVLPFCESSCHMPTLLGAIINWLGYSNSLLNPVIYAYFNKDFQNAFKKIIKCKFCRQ

Compound: CCCCN1CCC(CNC(=O)c2c3n(c4ccccc24)CCCO3)CC1 [SB-207266-A, N-[(1-^nbutyl-4-piperidinyl)methyl]-3,4-dihydro-2H-[1,3]oxazino[3,2-a]indole-10-carboxamide]
- Ki (Opiate mu): < 1 µM
- Kd (5-HT2C): 2.69 µM
- Kd (5-HT3): 1.15 µM
- affinity for the 5-HT2B receptor (5-HT2B receptor): 7.47
- effect on basal motility (5-HT4 receptor [1]; any dose): no effect
- ID50, antagonism of the contractile response to 5-HT (5-HT4 receptor [1]; iv): 1.3 (Confidence Limits 0.1-14.0) ug.kg^−1
- ID50, antagonism of the contractile response to 5-HT (5-HT4 receptor [1]; po): 9.6 (CL 0.7-128) ug.kg^−1
- Kd (5-HT1E): > 10 µM
- Kd (H1): 3.98 µM
- pKd Alpha1 (Alpha1): <5.52
- type of antagonism of 5-HT response (5-HT4 receptor [2]): non-surmountable antagonist
- pKd GABA (GABA): >5.00
- Kd (D2): 2.34 µM
- Kd (5-HT2A): 1.29 µM
- Kd (D3): 2.95 µM
- Kd (5-HT1A): > 10 µM
- Kd (5-HT1D): > 10 µM
- Ki (Opiate delta): < 1 µM
- Ki (Opiate kappa): < 1 µM
- contraction evoked by the 5-HT4 receptor partial agonist BIMU 1 (5-HT4 receptor [3]): reduced the maximum response to BIMU 1
- maximum response to 5-HT (5-HT4 receptor [3]; 3×10^−8 M and above): reduced in a concentration-dependent manner
- time for recovery of responses to 5-HT upon washout (5-HT4 receptor [3]; highest concentrations (which reduce maximum 5-HT-evoked contractions)): ≤ 90 min
- total interaction scores ([4]; 0.01, 1, 10 mg.kg^−1, 1 h after administration): Significantly increased
- locomotion during the test ([4]; rat, in vivo): not accompanied by any alteration in locomotion
- DMPP-evoked contractions [5]: unaffected
- antagonism of 5-HT-evoked tachycardia (5-HT4 receptors; 0.1, 0.3 or 1.0 ugkg^−1 intravenously, n=2 each): antagonised the 5-HT-evoked tachycardia in a dose-dependent manner
- recovery from antagonism (5-HT4 receptors; 0.3, 1.0 ugkg^−1 i.v., over the duration of the experiment): incomplete
- pKd BDZ (BDZ): >5.00
